Marks after values point to notes of the source that are not given here.
How the values were obtained:
Format in all cases: in vivo
[1] = tested on: Botrytis cinerea (the causal agent of tomato Botrytis); assay: Test C: tomato Botrytis, preventive spray on tomato seedlings, visual disease rating; conditions: for Test C rating (100 = 100% disease control, 0 = no disease control relative to the controls): tomato Botrytis, preventive spray on tomato seedlings, no asterisk (standard test suspension concentration, not 40 ppm)
From the text: (§1) General protocol for preparing test suspensions for Tests A-D: the test compounds were first dissolved in acetone in an amount equal to 3% of the final volume and then suspended at the desired concentration (in ppm) in acetone and purified water (50/50 mix by volume) containing 250 ppm of the surfactant Trem® 014 (polyhydric alcohol esters). The resulting test suspensions were then used in Tests A-D. Spraying a 200 ppm test suspension to the point of run-off on the test plants was the equivalent of a rate of 800 g/ha.
(§2) The test suspension was sprayed to the point of run-off on tomato seedlings. The following day the seedlings were inoculated with a spore suspension of Botrytis cinerea (the causal agent of tomato Botrytis) and incubated in a saturated atmosphere at 20° C. for 48 h, and then moved to a growth chamber at 24° C. for 3 days, after which time visual disease ratings were made.
(§3) Results for Tests A-E are given in Table A. In the Table, a rating of 100 indicates 100% disease control and a rating of 0 indicates no disease control (relative to the controls). A dash (—) indicates no test results. An asterisk “*” next to the rating value indicates a 40 ppm test suspension was used.

[2] = tested on: Septoria tritici (the causal agent of wheat leaf blotch); assay: Test B: wheat leaf blotch, preventive spray on wheat seedlings, visual disease rating; conditions: wheat leaf blotch, preventive spray on wheat seedlings
From the text: as §1
as §2, with “wheat” for “tomato”, “Septoria tritici” for “Botrytis cinerea”, “wheat leaf blotch)” for “tomato Botrytis)”, “24°” for “20°”, “20°” for “24°”, “19” for “3”
as §3

[3] = tested on: Blumeria graminis f. sp. tritici (also known as Erysiphe graminis f. sp. tritici, the causal agent of wheat powdery mildew); assay: Test D: wheat powdery mildew, preventive spray on wheat seedlings, visual disease rating; conditions: for Test D rating (100 = 100% disease control, 0 = no disease control relative to the controls): wheat powdery mildew, preventive spray on wheat seedlings
From the text: as §1
The test suspension was sprayed to the point of run-off on wheat seedlings. The following day the seedlings were inoculated with a spore dust of Blumeria graminis f. sp. tritici, (also known as Erysiphe graminis f. sp. tritici, the causal agent of wheat powdery mildew) and incubated in a growth chamber at 20° C. for 8 days, after which time visual disease ratings were made.
as §3

[4] = tested on: Puccinia recondite f. sp. tritici (the causal agent of wheat leaf rust); assay: Test A: wheat leaf rust, preventive spray on wheat seedlings, visual disease rating; conditions: for Test A rating (100 = 100% disease control, 0 = no disease control relative to the controls): wheat leaf rust, preventive spray on wheat seedlings
From the text: as §1
as §2, with “wheat” for “tomato”, “Puccinia recondite f. sp. tritici” for “Botrytis cinerea”, “wheat leaf rust)” for “tomato Botrytis)”, “24” for “48”, “20°” for “24°”, “7” for “3”
as §3

[5] = no asterisk (standard test suspension concentration, not 40 ppm)
[6] = asterisk: 40 ppm test suspension
[7] = no asterisk: standard test suspension concentration, 100 = 100% disease control, 0 = no control relative to controls

SMILES | Test C rating (100 = 100% disease control, 0 = no disease control relative to the controls) [1] [%] | Test B rating (100 = 100% disease control, 0 = no disease control relative to the controls) [2, 5] [%] | Test D rating (100 = 100% disease control, 0 = no disease control relative to the controls) [3, 5] [%] | Test A rating (100 = 100% disease control, 0 = no disease control relative to the controls) [4, 5] [%] | Test B rating (100 = 100% disease control, 0 = no disease control relative to the controls) [2, 6] | Test D rating (100 = 100% disease control, 0 = no disease control relative to the controls) [3, 6] | Test A rating (100 = 100% disease control, 0 = no disease control relative to the controls) [4, 6] | Test C rating (% disease control, tomato Botrytis) [1, 7] [%] | Test D rating (% disease control, wheat powdery mildew) [3, 7] [%] | Test A rating (% disease control, wheat leaf rust) [4, 7] [%]
Cc1nc(Cl)n(-c2c(F)cc(F)cc2Cl)c1C(O)c1ccc(F)cc1F (racemic) [compound 8] | 100 | 100 | 100 | 100 |  |  |  |  |  | 
Cc1nc(Cl)n(-c2c(F)cc(F)cc2Cl)c1C(O)c1ccc(F)cc1Cl (racemic) [compound 9] | 100 | 100 | 100 | 100 |  |  |  |  |  | 
Cc1nc(Cl)n(-c2ccc(F)cc2Br)c1C(O)c1ccc(Cl)cc1Cl (racemic) [compound 11] | 31 | 68 | 0 | 99 |  |  |  |  |  | 
Cc1ncn(-c2c(F)cc(F)cc2Cl)c1C(O)c1ccc(F)cc1F (racemic) [compound 12] | 95 | 100 | 21 | 99 |  |  |  |  |  | 
Cc1cc(F)ccc1C(O)c1c(C)nc(Cl)n1-c1c(F)cc(F)cc1Cl (racemic) [compound 13] | 99 |  | 100 | 100 | 100* % |  |  |  |  | 
Cc1cc(F)ccc1C(O)c1c(Cl)nc(Cl)n1-c1c(F)cc(F)cc1Cl (racemic) [compound 14] | 99 |  | 100 | 100 | 100* % |  |  |  |  | 
Cc1cc(F)ccc1C(O)c1c(C)ncn1-c1c(F)cc(F)cc1Cl (racemic) [compound 15] | 15 |  | 0 | 0 | 0* % |  |  |  |  | 
OC(c1c(F)ccc(Br)c1Cl)c1c(Cl)nc(Cl)n1-c1ccc(F)cc1Cl (racemic) [compound 18] | 100 | 100 | 91 | 100 |  |  |  |  |  | 
Cc1cc(F)ccc1C(O)c1c(Cl)nc(Cl)n1-c1c(F)cccc1Cl (racemic) [compound 23] | 100 | 100 | 100 | 100 |  |  |  |  |  | 
Cc1nc(Cl)n(-c2ccc(F)cc2Cl)c1C(O)c1c(F)ccc(Br)c1Cl (racemic) [compound 34] | 99 | 98 |  | 99 |  |  |  |  |  | 
COc1cc(F)c(C(O)c2c(Br)ncn2-c2ccc(F)cc2Cl)c(F)c1 (racemic) [compound 232] |  |  |  |  | 59* % | 0* % | 100* % |  |  | 
COc1cc(F)c(-n2c(C(O)c3ccc(F)cc3F)cnc2C)c(F)c1 (stereo not drawn) [compound 404] |  |  |  |  |  |  |  | 0 | 0 | 98
